According to US20190185479A1, “BICYCLIC NITROGENATED HETEROCYCLIC COMPOUND” (MITSUBISHI TANABE PHARMA CORPORATION, priority 2016, published 2019):

Key:
Assay type in all cases: biochemical
Human PDE7B (hPDE7B) = target: T1, Human PDE7B (hPDE7B) (Homo sapiens, UniProt Q9NP56); experiment: Measurement of PDE7 inhibitory activity (Experimental Example 1; residual cAMP, LANCE Ultra cAMP TR-FRET); details: cAMP 3 nmol/L, room temperature 60 minutes
T1 construct: made in house; host or cells: COS-7 cells
Method in brief: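 hPDE7B from transfected COS-7 cells reacted with 3 nmol/L cAMP (final) and compound (2% DMSO) in 50 mmol/L Tris-HCl pH 7.5, 1 mmol/L MgCl2, 0.1% BSA, 0.5 mmol/L DTT, 60 min at room temperature. Reaction stopped with IBMX; residual cAMP measured by TR-FRET. Inhibition scaled between no-compound and no-enzyme controls.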

hPDE4D = target: T2, hPDE4D (Homo sapiens, UniProt Q08499); experiment: PDE4 inhibition assay (IC50), Experimental Example 3; details: for IC50: hPDE4D, read-out: PDE inhibition assay IC50, PDE4; for inhibition at 10 µM: at 10 μmol/L; for inhibition at 10 µM / inhibition at 1 µM: read-out: inhibition rate (%) at prescribed concentration, PDE4
T2 construct: purchased SB Drug Discovery
Protocol: (§1) PDE7 inhibitory assay was carried out by reacting the mixture of a compound, hPDE7B, and cAMP, and measuring the residual cAMP by a detection method using LANCE (registered trademark) Ultra cAMP Detection Kit (ParkinElmer). The compound was dissolved in DMSO, and diluted so that the concentration would become 50 times of the final concentration. The hPDE7B and cAMP were diluted with an assay buffer (50 mmol/L Tris-HCl, 1 mmol/L MgCl2, 0.1% BSA, 0.5 mmol/L DTT, pH7.5) so that the hPDE7B would have an appropriate enzyme activity and the concentration of cAMP would become 6 nmol/L. To a 96 well plate were added the compound (2 μL) (DMSO final concentration: 2%), hPDE7B (48 μL), and cAMP (50 μL) (concentration at the reaction: 3 nmol/L), and the resulting mixture was reacted at room temperature for 60 minutes. The reaction solution (20 μL) was subjected to a TR-FRET method according to the protocol specified by the kit to measure the concentration of the residual cAMP. In the assay, to a tracer solution specified by the kit was added 0.5 mmol/L of 3-isobutyl-1-methylxanthine (IBMX, nonselective PDE inhibitor) in order to stop the PDE enzyme reaction after the completion of reaction until the measurement.
(§2) The prediction of PDE7 selectivity was evaluated by comparing each IC50 value of a compound against PDE4, 8, and 10 with the IC50 value of said compound against PDE7B.
(§3) hPDE4D, hPDE8B, and hPDE10A were prepared by the same method as [Method for preparing samples 2].
(§4) PDE4, 8, and 10 inhibitory assays were carried out by the same method as [Assay procedure 1].
(§5) The reaction without a compound wad defined as “0% inhibition”, the reaction without each PDE was defined as “100% inhibition”, and the calculation of IC50 value was carried out by the same method as <Method for data calculation 1>.

hPDE8B = target: T3, hPDE8B (Homo sapiens, UniProt O95263); experiment: PDE8 inhibition assay (IC50), Experimental Example 3; details: for IC50: hPDE8B, read-out: PDE inhibition assay IC50, PDE8; for inhibition rate (%) at prescribed concentration, PDE8 / inhibition at 1 µM: at 1 μmol/L
T3 construct: purchased SB Drug Discovery
Protocol: as §1, §2, §3, §4, §5

hPDE10A = hPDE10A (Homo sapiens, UniProt Q9Y233); experiment: PDE10 inhibition assay (IC50), Experimental Example 3; details: for IC50: hPDE10A, read-out: PDE inhibition assay IC50, PDE10; for inhibition at 10 µM: at 10 μmol/L
Protocol: as §1, §2, §3, §4, §5

[1] = read-out: inhibition rate (%) at prescribed concentration, PDE8
[2] = read-out: inhibition rate (%) at prescribed concentration, PDE10

T1 sequence (Q9NP56 whole entry): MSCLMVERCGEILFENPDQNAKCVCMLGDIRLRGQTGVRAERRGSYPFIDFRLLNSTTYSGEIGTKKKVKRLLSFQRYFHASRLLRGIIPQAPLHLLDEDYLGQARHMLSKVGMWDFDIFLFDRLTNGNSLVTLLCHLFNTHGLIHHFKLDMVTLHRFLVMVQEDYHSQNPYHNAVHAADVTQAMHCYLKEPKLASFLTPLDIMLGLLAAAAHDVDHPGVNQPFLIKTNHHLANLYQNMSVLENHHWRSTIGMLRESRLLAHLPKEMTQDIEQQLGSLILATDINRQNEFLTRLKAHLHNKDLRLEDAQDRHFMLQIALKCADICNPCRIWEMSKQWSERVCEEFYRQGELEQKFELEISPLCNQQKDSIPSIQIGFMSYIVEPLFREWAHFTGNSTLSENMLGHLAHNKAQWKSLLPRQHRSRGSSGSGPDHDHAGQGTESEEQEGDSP
Chain of hPDE10A (Q9Y233 290-1055 limits assumed): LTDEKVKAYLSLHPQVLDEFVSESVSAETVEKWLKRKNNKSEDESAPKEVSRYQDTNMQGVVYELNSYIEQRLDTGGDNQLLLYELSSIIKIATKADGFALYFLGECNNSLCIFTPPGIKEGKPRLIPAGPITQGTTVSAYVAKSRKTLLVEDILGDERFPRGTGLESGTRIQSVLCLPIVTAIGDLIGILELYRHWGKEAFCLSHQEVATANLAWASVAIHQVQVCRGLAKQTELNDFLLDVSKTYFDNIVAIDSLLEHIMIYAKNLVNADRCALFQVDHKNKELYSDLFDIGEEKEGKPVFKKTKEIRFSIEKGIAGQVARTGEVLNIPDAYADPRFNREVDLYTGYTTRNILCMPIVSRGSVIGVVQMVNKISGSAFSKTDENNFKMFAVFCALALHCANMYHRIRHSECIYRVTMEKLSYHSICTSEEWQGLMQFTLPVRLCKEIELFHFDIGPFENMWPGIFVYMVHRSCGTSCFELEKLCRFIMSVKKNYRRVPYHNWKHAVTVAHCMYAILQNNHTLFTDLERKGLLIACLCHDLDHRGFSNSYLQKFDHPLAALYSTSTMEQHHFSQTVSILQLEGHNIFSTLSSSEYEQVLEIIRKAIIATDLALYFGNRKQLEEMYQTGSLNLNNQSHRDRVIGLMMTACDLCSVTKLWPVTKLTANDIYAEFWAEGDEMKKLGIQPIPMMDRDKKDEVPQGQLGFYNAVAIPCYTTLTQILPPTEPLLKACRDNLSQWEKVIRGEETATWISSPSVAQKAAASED
T3 sequence (O95263 whole entry): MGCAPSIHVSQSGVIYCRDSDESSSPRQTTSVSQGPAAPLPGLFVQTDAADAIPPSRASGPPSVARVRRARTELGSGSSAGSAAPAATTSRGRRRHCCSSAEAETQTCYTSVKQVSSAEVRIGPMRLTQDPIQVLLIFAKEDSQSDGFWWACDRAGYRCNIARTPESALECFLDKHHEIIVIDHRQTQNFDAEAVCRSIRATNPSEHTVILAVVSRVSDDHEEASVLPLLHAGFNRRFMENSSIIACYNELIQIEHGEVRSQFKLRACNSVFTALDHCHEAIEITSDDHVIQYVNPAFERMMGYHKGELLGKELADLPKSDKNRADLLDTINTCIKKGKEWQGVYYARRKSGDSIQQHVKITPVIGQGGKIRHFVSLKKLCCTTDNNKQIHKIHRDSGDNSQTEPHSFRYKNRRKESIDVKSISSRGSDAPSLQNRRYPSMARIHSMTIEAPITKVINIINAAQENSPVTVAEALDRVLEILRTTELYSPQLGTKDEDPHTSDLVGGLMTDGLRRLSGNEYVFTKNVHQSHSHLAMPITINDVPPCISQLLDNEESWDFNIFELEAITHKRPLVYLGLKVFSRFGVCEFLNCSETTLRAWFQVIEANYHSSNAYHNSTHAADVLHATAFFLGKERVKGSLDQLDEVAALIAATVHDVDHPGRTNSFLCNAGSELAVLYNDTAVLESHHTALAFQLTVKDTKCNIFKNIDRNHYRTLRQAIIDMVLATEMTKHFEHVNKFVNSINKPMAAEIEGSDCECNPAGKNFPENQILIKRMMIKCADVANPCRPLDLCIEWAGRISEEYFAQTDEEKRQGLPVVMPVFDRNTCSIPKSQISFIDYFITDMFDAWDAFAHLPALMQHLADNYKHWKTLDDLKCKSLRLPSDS
T2 sequence (Q08499 whole entry): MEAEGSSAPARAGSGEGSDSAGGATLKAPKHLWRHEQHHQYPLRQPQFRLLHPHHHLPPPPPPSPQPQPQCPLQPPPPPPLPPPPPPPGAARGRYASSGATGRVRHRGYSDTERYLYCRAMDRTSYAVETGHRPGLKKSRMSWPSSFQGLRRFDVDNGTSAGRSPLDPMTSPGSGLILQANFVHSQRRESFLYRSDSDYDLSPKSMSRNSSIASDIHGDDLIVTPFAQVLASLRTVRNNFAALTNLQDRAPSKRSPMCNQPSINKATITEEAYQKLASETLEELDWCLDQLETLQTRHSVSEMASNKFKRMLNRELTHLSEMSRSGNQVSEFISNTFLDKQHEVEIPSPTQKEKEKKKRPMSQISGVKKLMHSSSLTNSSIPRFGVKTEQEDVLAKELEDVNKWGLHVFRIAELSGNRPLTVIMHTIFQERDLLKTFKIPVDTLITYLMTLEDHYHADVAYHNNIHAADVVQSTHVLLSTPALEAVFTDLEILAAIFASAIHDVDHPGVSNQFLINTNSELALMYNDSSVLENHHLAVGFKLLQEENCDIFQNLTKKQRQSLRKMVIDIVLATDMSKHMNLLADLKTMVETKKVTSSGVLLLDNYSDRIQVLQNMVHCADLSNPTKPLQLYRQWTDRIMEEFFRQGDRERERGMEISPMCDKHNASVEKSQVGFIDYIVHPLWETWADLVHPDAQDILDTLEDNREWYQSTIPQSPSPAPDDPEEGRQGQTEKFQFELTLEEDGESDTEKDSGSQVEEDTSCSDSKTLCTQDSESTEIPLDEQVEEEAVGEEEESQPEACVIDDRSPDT

Structure (SMILES)	IC50 (Human PDE7B (hPDE7B)) [nM]	IC50 (hPDE4D) [nM]	IC50 (hPDE8B) [nM]	IC50 (hPDE10A) [nM]	other results
C[C@@H]1C[C@H](C)CN(c2nnc3c(N)nccn23)C1 [Example 52]	80	8190	1160	6800	–
CC1CCCCC1c1nnc2c(N)ncnn12 (single isomer, unassigned) [Example 70, 3-(cis-2-methylcyclohexyl) [1,2,4]triazolo[3,4-f][1,2,4]triazin-8-amine]	25	–	–	1800	inhibition rate (%) at prescribed concentration, PDE4 (hPDE4D; at 1 μmol/L): 67% at 1; inhibition rate (%) at prescribed concentration, PDE8 (hPDE8B): 64% at 1
Nc1ncnc2c1nnn2C1CCCC(CF)C1 (stereo not shown) [Example 118]	80	4250	–	–	inhibition at 1 µM (hPDE8B; [1]): 55%
Nc1ncnn2c(C3CCCCC3)nnc12 [Example 68, 3-cyclohexyl[1,2,4]triazolo[3,4-f][1,2,4]triazin-8-amine]	20	4130	500	–	inhibition at 10 µM (hPDE10A; [2]): 34%
CCC1CCCCN1c1nnc2c(N)nccn12 (single isomer, unassigned) [Example 222, 3-(2-ethylpiperidin-1-yl) [1,2,4]triazolo[4,3-a]pyrazin-8-amine]	80	3240	10600	6420	–
Nc1nccn2c(C3[C@H]4CCCC[C@@H]34)nnc12 (stereo partly drawn) [Example 164, 3-[(1R,6S,7r)-bicyclo[4.1.0]hept-7-yl][1,2,4]triazolo[4,3-a]pyrazin-8-amine]	30	3790	4400	–	inhibition at 10 µM (hPDE10A; [2]): 41%
CC1CC(c2nnc3c(N)nccn23)CC(F)(F)C1 (single isomer, unassigned) [Example 214]	60	6400	17100	15700	–
Cn1nc(C2CCCCC2)c2ncnc(N)c21 [Example 187, 3-cyclohexyl-1-methyl-1H-pyrazolo[4,3-d]pyrimidin-7-amine]	580	–	–	2720	inhibition at 10 µM (hPDE4D): 38%
CC1CC(c2nnc3c(N)nccn23)CC(F)(F)C1 (single isomer, unassigned) [Example 216, 3-(trans-3,3-difluoro-5-methylcyclohexyl[1,2,4]triazolo[4,3-a]pyrazin-8-amine]	50	30600	16600	37900	–
CC1CCN(c2nnc3c(N)nccn23)C(C)C1 (racemic) [Example 62, 3-(2,4-dimethylpiperidin-1-yl) [1,2,4]triazolo[4,3-a]pyrazin-8-amine]	40	4300	21300	7100	–
CC1CCC(F)(F)CC1c1nnc2c(N)ncnn12 (single isomer, unassigned) [Example 246, 3-(cis-5,5-difluoro-2-methylcyclohexyl) [1,2,4]triazolo[3,4-f][1,2,4]triazin-8-amine]	3	2300	4400	–	–
CC1(C)CC(c2nnc3c(N)nccn23)CC(F)(F)C1 (single isomer, unassigned) [Example 177, 3-(3,3-difluoro-5,5-dimethylcyclohexyl) [1,2,4]triazolo[4,3-a]pyrazin-8-amine]	35	21000	13700	13300	–
Nc1nccn2c(C3CCC4CC4C3)nnc12 (single isomer, unassigned) [Example 219, 3-(bicyclo[4.1.0]hept-3-yl) [1,2,4]triazolo[4,3-a]pyrazin-8-amine]	50	2100	1200	4700	–
CC1CCCC(c2nnc3c(N)ncnn23)C1 (single isomer, unassigned) [Example 240, 3-(cis-3-methylcyclohexyl) [1,2,4]triazolo[3,4-f][1,2,4]triazin-8-amine]	< 10	–	–	3100	inhibition at 1 µM (hPDE4D; at 1 μmol/L): 86%; inhibition rate (%) at prescribed concentration, PDE8 (hPDE8B): 95% at 1
Nc1nccn2c([C@H]3[C@@H]4CCC[C@@H]43)nnc12 [Example 179, 3-[(1R,5S,6r)-bicyclo[3.1.0]hex-6-yl][1,2,4]triazolo[4,3-a]pyrazin-8-amine]	80	4700	4000	17900	–
Nc1nccn2c(N3CCCC(Cc4ccccc4)C3)nnc12 (stereo not shown) [Example 48]	70	1300	–	–	inhibition at 1 µM (hPDE8B; [1]): 79%; inhibition at 1 µM (hPDE10A; at 1 μmol/L, read-out: inhibition rate (%) at prescribed concentration, PDE10): 52%

Structure (SMILES)	IC50 (Human PDE7B (hPDE7B)) [nM]	IC50 (hPDE4D) [nM]	IC50 (hPDE8B) [nM]	IC50 (hPDE10A) [nM]	other results
CC1CCC(C(F)(F)F)CC1c1nnc2c(N)nccn12 (single isomer, unassigned) [Example 174, 3-[2-methyl-5-(trifluoromethyl)cyclohexyl][1,2,4]triazolo[4,3-a]pyrazin-8-amine]	3	6000	6800	1300	–
Nc1ncnc2c1nnn2C1CCCCC1F (single isomer, unassigned) [Example 195, 3-(cis-2-fluorocyclohexyl)-3H-[1,2,3]triazolo[4,5-d]pyrimidin-7-amine]	50	5700	1410	30600	–
Cc1cnc(N)c2nnc(C3CCCCC3)n12 [Example 171, 3-cyclohexyl-5-methyl[1,2,4]triazolo[4,3-a]pyrazin-8-amine]	70	–	2950	7200	inhibition at 10 µM (hPDE4D): 48%
CC(C)(C)OC(=O)N1CCCCC1c1nnc2c(N)nccn12 (stereo not shown) [Example 32, tert-butyl 2-(8-amino-[1,2,4]triazolo[4,3-a]pyrazin-3-yl)piperidine-1-carboxylate]	80	5780	2270	22600	–
CC1CCCCC1c1nnc2c(N)ncnn12 (single isomer, unassigned) [Example 238, 3-(cis-2-methylcyclohexyl) [1,2,4]triazolo[3,4-f][1,2,4]triazin-8-amine]	< 10	–	–	1900	inhibition at 1 µM (hPDE4D; at 1 μmol/L): 63%; inhibition at 1 µM (hPDE8B; [1]): 51%
Nc1ncnc2c1ncn2C1CCCCC1 [Example 182]	410	3420	–	470	–
Nc1ncnc2c1nnn2[C@H]1CCCN(c2ccccc2)C1 [Example 137, 3-[(3S)-1-phenylpiperidin-3-yl]-3H-[1,2,3]triazolo[4,5-d]pyrimidin-7-amine]	190	–	–	–	inhibition at 0.1 µM (hPDE8B; at 0.1 μmol/L, read-out: inhibition rate (%) at prescribed concentration, PDE8): 58%
Nc1ncnc2c1c(C(F)(F)F)nn2C1CCCCC1 [Example 185]	560	1840	–	360	–
Nc1ncnc2c1nnn2C1CCCC(COc2ccccc2)C1 (stereo not shown) [Example 125]	210	–	1110	–	–
CC[C@H]1CC[C@H](n2nnc3c(N)ncnc32)CC1 [Example 100]	120	–	1800	–	–
Nc1ncnc2c1nnn2C1CCCC(COCc2ccccc2)C1 (stereo not shown) [Example 126]	280	–	2650	–	–
C=C(C)[C@@H]1CC[C@@H](C)[C@@H](n2nnc3c(N)ncnc32)C1 [Example 106, 3-[(1S,2R,5R)-2-methyl-5-(prop-1-en-2-yl)cyclohexyl]-3H-[1,2,3]triazolo[4,5-d]pyrimidin-7-amine]	300	–	4380	–	–
Nc1ncnc2c(C3CCCCC3)onc12 [Example 253, 3-(cyclohexyl)-isoxazolo[4,3-d]pyrimidin-8-amine]	610	7380	3810	–	–
COc1nc(N)c2nnn(C3CCCCC3)c2n1 [Example 92, 3-cyclohexyl-5-methoxy-3H-[1,2,3]triazolo[4,5-d]pyrimidin-7-amine]	< 10	640	–	2970	–
Nc1ncnc2c1nnn2[C@H]1CCCC(F)(F)C1 [Example 89]	160	–	8600	–	inhibition at 10 µM (hPDE10A; [2]): 17%
CSc1nc(N)c2nnn(C3CCCCC3)c2n1 [Example 5, 3-cyclohexyl-5-(methylsulfanyl)-3H-[1,2,3]triazolo[4,5-d]pyrimidin-7-amine]	30	190	–	2760	–
